Values after ≈ are worked out from the molar mass of the structure shown. Where two headings read alike, the source gives them in different places.
How the values were obtained:
Assay type in all cases: cell-based
Moraxella catarrhalis = test: MIC by NCCLS reference broth microdilution, 450 respiratory tract pathogens
Klebsiella pneumoniae = test: as above; settings: for MIC50 / MIC90: Klebsiella pneumoniae
Staphylococcus aureus = test: as above
Haemophilus influenzae = test: as above
Streptococcus pneumoniae [1] = test: MIC by agar dilution (NCCLS), 411 isolates Buenos Aires 1998-99; settings: S. pneumoniae
Streptococcus pyogenes = test: MIC by NCCLS reference broth microdilution, 450 respiratory tract pathogens; settings: Streptococcus pyogenes
Streptococcus pneumoniae [2] = test: as above; settings: Streptococcus pneumoniae
[3] = extended spectrum β-lactamase negative (n = 30)
[4] = extended spectrum β-lactamase positive (n = 20)
[5] = β-lactamase positive and erythromycin resistant (n = 10)
[6] = Haemophilus influenzae, Haemophilus influenzae (n = 100)
[7] = Haemophilus influenzae, Haemophilus influenzae (n = 100), read-out: MIC90
[8] = Haemophilus influenzae, β-lactamase negative (n = 80)
[9] = Haemophilus influenzae, β-lactamase negative (n = 80), read-out: MIC90
[10] = Haemophilus influenzae, β-lactamase positive (n = 20)
[11] = Haemophilus influenzae, β-lactamase positive (n = 20), read-out: MIC90
[12] = Streptococcus pyogenes (n = 100)
[13] = erythromycin resistant C phenotype [MLSB] (n = 20)
[14] = erythromycin resistant I phenotype [MLSB] (n = 20)
[15] = erythromycin resistant M phenotype (n = 20)
[16] = Streptococcus pneumoniae (n = 100)
[17] = erythromycin resistant M phenotype (n = 16)
[18] = erythromycin resistant MLSB phenotype (n = 16)
[19] = penicillin intermediate (n = 16)
[20] = penicillin susceptible (n = 20)

## COc1c(N2C[C@@H]3CCCN[C@@H]3C2)c(F)cc2c(=O)c(C(=O)O)cn(C3CC3)c12 [Moxifloxacin, moxifloxacin]
Moraxella catarrhalis; Moraxella catarrhalis (n = 50)
  MIC: 0.00375 to 0.12 µg/mL (≈ 0.00934 to 0.299 µM)
  MIC50: 0.06 µg/mL (≈ 0.149 µM)
  MIC90: 0.06 µg/mL (≈ 0.149 µM)
Moraxella catarrhalis; β-lactamase negative (n = 13)
  MIC: 0.00375 to 0.12 µg/mL (≈ 0.00934 to 0.299 µM)
  MIC50: 0.015 µg/mL (≈ 0.0374 µM)
  MIC90: 0.06 µg/mL (≈ 0.149 µM)
Moraxella catarrhalis; β-lactamase positive (n = 37)
  MIC: 0.00375 to 0.12 µg/mL (≈ 0.00934 to 0.299 µM)
  MIC50: 0.03 µg/mL (≈ 0.0747 µM)
  MIC90: 0.06 µg/mL (≈ 0.149 µM)
Klebsiella pneumoniae; Klebsiella pneumoniae (n = 50)
  MIC Range: 0.015 to 1 µg/mL
  MIC50: 0.06 µg/mL (≈ 0.149 µM)
  MIC90: 0.5 µg/mL (≈ 1.25 µM)
Klebsiella pneumoniae; [3]
  MIC50: 0.06 µg/mL (≈ 0.149 µM)
  MIC90: 0.25 µg/mL (≈ 0.623 µM)
  MIC Range: 0.015 to 0.5 µg/mL
Klebsiella pneumoniae; [4]
  MIC50: 0.5 µg/mL (≈ 1.25 µM)
  MIC90: 1 µg/mL (≈ 2.49 µM)
  MIC Range: 0.06 to 1 µg/mL
Staphylococcus aureus; Staphylococcus aureus (n = 50)
  MIC: 0.015 to 0.5 µg/mL (≈ 0.0374 to 1.25 µM)
  MIC50: 0.25 µg/mL (≈ 0.623 µM)
  MIC90: 0.5 µg/mL (≈ 1.25 µM)
Staphylococcus aureus; β-lactamase negative (n = 20)
  MIC: 0.06 to 0.5 µg/mL (≈ 0.149 to 1.25 µM)
  MIC50: 0.25 µg/mL (≈ 0.623 µM)
  MIC90: 0.5 µg/mL (≈ 1.25 µM)
Staphylococcus aureus; β-lactamase positive (n = 20)
  MIC: 0.12 to 0.5 µg/mL (≈ 0.299 to 1.25 µM)
  MIC50: 0.25 µg/mL (≈ 0.623 µM)
  MIC90: 0.5 µg/mL (≈ 1.25 µM)
Staphylococcus aureus; [5]
  MIC: 0.12 to 0.5 µg/mL (≈ 0.299 to 1.25 µM)
  MIC50: 0.25 µg/mL (≈ 0.623 µM)
  MIC90: 0.5 µg/mL (≈ 1.25 µM)
Haemophilus influenzae; [6]
  MIC: 0.0075 to 0.12 µg/mL (≈ 0.0187 to 0.299 µM)
  MIC50: 0.03 µg/mL (≈ 0.0747 µM)
Haemophilus influenzae; [7]
  MIC90: 0.06 µg/mL (≈ 0.149 µM)
Haemophilus influenzae; [8]
  MIC: 0.0075 to 0.06 µg/mL (≈ 0.0187 to 0.149 µM)
  MIC50: 0.03 µg/mL (≈ 0.0747 µM)
Haemophilus influenzae; [9]
  MIC90: 0.06 µg/mL (≈ 0.149 µM)
Haemophilus influenzae; [10]
  MIC: 0.0075 to 0.06 µg/mL (≈ 0.0187 to 0.149 µM)
  MIC50: 0.015 µg/mL (≈ 0.0374 µM)
Haemophilus influenzae; [11]
  MIC90: 0.015 µg/mL (≈ 0.0374 µM)

## amoxycillin/clavulanate
Streptococcus pneumoniae [1]; Penicillin intermediate (n = 17)
  MIC90: 1 µg/mL
Streptococcus pneumoniae [1]; Penicillin resistant (n = 4)
  MIC90: 1 µg/mL
Streptococcus pneumoniae [1]; Penicillin susceptible (n = 69)
  MIC90: 0.016 µg/mL

## NC1CCN(c2c(F)cc3c(=O)c(C(=O)O)cn(C4CC4)c3c2Cl)C1 (stereo not shown) [Clinafloxacin, clinafloxacin]
Moraxella catarrhalis; Moraxella catarrhalis (n = 50)
  MIC: 0.00375 to 0.015 µg/mL (≈ 0.0103 to 0.041 µM)
  MIC50: ≤ 0.00375 µg/mL
  MIC90: 0.015 µg/mL (≈ 0.041 µM)
Moraxella catarrhalis; β-lactamase negative (n = 13)
  MIC: 0.00375 to 0.015 µg/mL (≈ 0.0103 to 0.041 µM)
  MIC50: ≤ 0.00375 µg/mL
  MIC90: 0.015 µg/mL (≈ 0.041 µM)
Moraxella catarrhalis; β-lactamase positive (n = 37)
  MIC: 0.00375 to 0.015 µg/mL (≈ 0.0103 to 0.041 µM)
  MIC50: ≤ 0.00375 µg/mL
  MIC90: 0.015 µg/mL (≈ 0.041 µM)
Streptococcus pyogenes; [12]
  MIC: 0.015 to 0.12 µg/mL (≈ 0.041 to 0.328 µM)
  MIC50: 0.06 µg/mL (≈ 0.164 µM)
  MIC90: 0.06 µg/mL (≈ 0.164 µM)
Streptococcus pyogenes; [13]
  MIC: 0.03 to 0.12 µg/mL (≈ 0.082 to 0.328 µM)
  MIC50: 0.06 µg/mL (≈ 0.164 µM)
  MIC90: 0.12 µg/mL (≈ 0.328 µM)
Streptococcus pyogenes; [14]
  MIC: 0.03 to 0.06 µg/mL (≈ 0.082 to 0.164 µM)
  MIC50: 0.06 µg/mL (≈ 0.164 µM)
  MIC90: 0.06 µg/mL (≈ 0.164 µM)
Streptococcus pyogenes; [15]
  MIC: 0.015 to 0.06 µg/mL (≈ 0.041 to 0.164 µM)
  MIC50: 0.03 µg/mL (≈ 0.082 µM)
  MIC90: 0.06 µg/mL (≈ 0.164 µM)
Streptococcus pyogenes; fully susceptible (n = 20)
  MIC: 0.03 to 0.12 µg/mL (≈ 0.082 to 0.328 µM)
  MIC50: 0.03 µg/mL (≈ 0.082 µM)
  MIC90: 0.06 µg/mL (≈ 0.164 µM)
Streptococcus pyogenes; multi-drug resistant (n = 20)
  MIC: 0.03 to 0.06 µg/mL (≈ 0.082 to 0.164 µM)
  MIC50: 0.03 µg/mL (≈ 0.082 µM)
  MIC90: 0.06 µg/mL (≈ 0.164 µM)
Klebsiella pneumoniae; Klebsiella pneumoniae (n = 50)
  MIC Range: ≤0.0075 to 1 µg/mL
  MIC50: 0.015 µg/mL (≈ 0.041 µM)
  MIC90: 1 µg/mL (≈ 2.73 µM)
Klebsiella pneumoniae; [3]
  MIC50: ≤ 0.0075 µg/mL
  MIC90: 0.015 µg/mL (≈ 0.041 µM)
  MIC Range: ≤0.0075 to 0.12 µg/mL
Klebsiella pneumoniae; [4]
  MIC50: ≤ 0.0075 µg/mL
  MIC90: 1 µg/mL (≈ 2.73 µM)
  MIC Range: ≤0.0075 to 1 µg/mL
Staphylococcus aureus; Staphylococcus aureus (n = 50)
  MIC: 0.06 to 0.25 µg/mL (≈ 0.164 to 0.683 µM)
  MIC50: 0.12 µg/mL (≈ 0.328 µM)
  MIC90: 0.25 µg/mL (≈ 0.683 µM)
Staphylococcus aureus; β-lactamase negative (n = 20)
  MIC: 0.06 to 0.25 µg/mL (≈ 0.164 to 0.683 µM)
  MIC50: 0.12 µg/mL (≈ 0.328 µM)
  MIC90: 0.25 µg/mL (≈ 0.683 µM)
Staphylococcus aureus; β-lactamase positive (n = 20)
  MIC: 0.06 to 0.25 µg/mL (≈ 0.164 to 0.683 µM)
  MIC50: 0.12 µg/mL (≈ 0.328 µM)
  MIC90: 0.25 µg/mL (≈ 0.683 µM)
Staphylococcus aureus; [5]
  MIC: 0.06 to 0.25 µg/mL (≈ 0.164 to 0.683 µM)
  MIC50: 0.12 µg/mL (≈ 0.328 µM)
  MIC90: 0.25 µg/mL (≈ 0.683 µM)
Haemophilus influenzae; Haemophilus influenzae (n = 100)
  MIC90: ≤0.00075 µg/mL
Haemophilus influenzae; [6]
  MIC: 0.0075 to 0.06 µg/mL (≈ 0.0205 to 0.164 µM)
  MIC50: ≤ 0.00075 µg/mL
Haemophilus influenzae; [7]
  MIC90: ≤ 0.00075 µg/mL
Haemophilus influenzae; [8]
  MIC: 0.0075 to 0.06 µg/mL (≈ 0.0205 to 0.164 µM)
  MIC50: ≤ 0.0075 µg/mL
Haemophilus influenzae; [9]
  MIC90: ≤ 0.0075 µg/mL
Haemophilus influenzae; [10]
  MIC: 0.0075 to 0.25 µg/mL (≈ 0.0205 to 0.683 µM)
  MIC50: ≤ 0.0075 µg/mL
Haemophilus influenzae; [11]
  MIC90: ≤ 0.0075 µg/mL
Streptococcus pneumoniae [2]; [16]
  MIC: 0.03 to 0.25 µg/mL (≈ 0.082 to 0.683 µM)
  MIC50: 0.06 µg/mL (≈ 0.164 µM)
  MIC90: 0.12 µg/mL (≈ 0.328 µM)
Streptococcus pneumoniae [2]; [17]
  MIC: 0.03 to 0.12 µg/mL (≈ 0.082 to 0.328 µM)
  MIC50: 0.06 µg/mL (≈ 0.164 µM)
  MIC90: 0.12 µg/mL (≈ 0.328 µM)
Streptococcus pneumoniae [2]; [18]
  MIC: 0.03 to 0.12 µg/mL (≈ 0.082 to 0.328 µM)
  MIC50: 0.06 µg/mL (≈ 0.164 µM)
  MIC90: 0.12 µg/mL (≈ 0.328 µM)
Streptococcus pneumoniae [2]; multi-drug resistant (n = 16)
  MIC: 0.06 to 0.12 µg/mL (≈ 0.164 to 0.328 µM)
  MIC50: 0.12 µg/mL (≈ 0.328 µM)
  MIC90: 0.12 µg/mL (≈ 0.328 µM)
Streptococcus pneumoniae [2]; [19]
  MIC: 0.06 to 0.12 µg/mL (≈ 0.164 to 0.328 µM)
  MIC50: 0.12 µg/mL (≈ 0.328 µM)
  MIC90: 0.12 µg/mL (≈ 0.328 µM)
Streptococcus pneumoniae [2]; penicillin resistant (n = 18)
  MIC: 0.06 to 0.25 µg/mL (≈ 0.164 to 0.683 µM)
  MIC50: 0.12 µg/mL (≈ 0.328 µM)
  MIC90: 0.25 µg/mL (≈ 0.683 µM)
Streptococcus pneumoniae [2]; [20]
  MIC: 0.015 to 0.12 µg/mL (≈ 0.041 to 0.328 µM)
  MIC50: 0.06 µg/mL (≈ 0.164 µM)
  MIC90: 0.12 µg/mL (≈ 0.328 µM)

Reference: patent EP1561465A2, “Methods of use of fluoroquinolone compounds against bacteria” (LG Life Sciences, Ltd., priority 1999, dated 2001)
